According to patent US20150141375A1 (priority 2009, published 2015):
“Also recorded” adds a separate entry of the source.

What was measured:
HCMV(AD169) = assay: In vitro potency against dsDNA viruses: HCMV; type: cell-based; conditions: Human betaherpesvirus 5, AD169, MRC5; MRC-5
[1] = Safety and pharmacokinetics of CMX001 in healthy volunteers; type: in vivo, human; conditions: blood, Human, analyte = label
Procedure: An initial study was conducted to evaluate the safety and pharmacokinetics of CMX001 in healthy volunteers. The study consisted of a single dose arm (SD) and a multiple dose arm (MD). In the single dose arm 7 cohorts of 6 subjects were treated (4 subjects received active drug and 2 placebo). Enrollment was staggered as 2 subjects (one active, one placebo) followed by 4 subjects (Groups A and B). The estimated single doses for the two highest doses treated for a […] subject were 40 mg (0.6 mg/kg cohort 6) and 70 mg (1 mg/kg cohort 7). In the multiple dose arm, cohort 6MD received 0.1 mg/kg on Day 0, 6 and 12; Cohort 7MD received 0.2 mg/kg on Day 0, 6 and 12. Levels of cidofovir, CMX001 and CMX064 (major metabolite) were measured in blood and urine of subjects during the course of the study. Gastrointestinal (GI) monitoring of the subjects included (a) monitoring for clinical signs of GI adverse events, (b) monitoring for clinical symptoms using a visual Analog Scale, (c) monitoring for appetite loss/anorexia, nausea, vomiting, diarrhea, constipation and intestinal gas/bloating, (d) laboratory tests for fecal occult blood; serum electrolytes, urine specific gravity, BUN/creatinine ratio; serum albumin, and lipids, and (e) diagnostic studies (the Wireless capsule endoscopy (PillCam®, Given Imaging)).

HSV-1 [2] = assay: microbe, parasite or virus in culture; type: cell-based
Vaccinia Virus = assay: microbe, parasite or virus in culture; type: cell-based; conditions: Orthopoxvirus vaccinia, HFF
PK comparison, mouse = type: in vivo; conditions: 2 mg/kg, calculated from doses of 2 and 10 mg/kg, analyte = label, after CMX001
Text: (§1) Table 4 illustrates the PK comparison of CMX001 with CMX021 and CMX064 for mouse, rabbit and human.

JC = assay: In vitro potency against dsDNA viruses: JC; type: cell-based, JC virus; conditions: JC polyomavirus
HPV 11 = assay: In vitro potency against dsDNA viruses: HPV 11; type: cell-based; conditions: A-431; A431
BKV(Dunlop) = conditions: RPTECs, same test system (Bernhoff et al., 2008), cited from earlier work
HSV-2 = assay: In vitro efficacy against HSV-2 strains in HFF (CPE, plaque reduction); type: cell-based
Text: In vitro screening by CPE assay in human foreskin fibroblast (HFF) cells with confirmation using plaque reduction assays in HFF.

CMV = conditions: person with renal failure, all observed time points after CMX001
[3] = Vistide 5 mg/kg with probenecid; cited from earlier work
EBV = assay: In vitro potency against dsDNA viruses: EBV; type: cell-based; conditions: human gammaherpesvirus 4; Dardi
SVG cells = assay: SVG cell viability / cell number (MTS, alamar blue, hematoxylin); type: cell-based, human
Procedure: Quantification of cell viability using the MTS [3-(4,5-dimethylthiazol-2-yl)-5-(3-carboxymethoxyphenyl)-2-(4-sulfophenyl)-2H-tetrazolium] assay is based on bioactivity of mitochondrial dehydrogenase in living cells, which converts colorless tetrazolium salt to a colored formazan. MTS assays were performed according to manufacturer's instructions (Promega, Madison Wis.). Briefly, culture medium was removed from cells and 50 μL of PBS was added into each well of a 96 well plate. Ten μL of MTS reagent were added to wells of cells, and to a well without cells to determine background. Mixtures were incubated at 37° C. for 2 hours and the absorbance was measured at 490 nm. Trypan blue staining was performed on identical cultures to correlate MTS values with cell viability. The final values indicated are the result from 3 replicates. The value for the non-treated control was set to 100% and all other values are represented as a percentage of the control. Alamar blue (AB) assay.
Quantification of cell viability using the alamar blue (AB) assay was performed according to the manufacturer's instructions (Invitrogen, Gaithersburg, Md.). Briefly, 10 μL of AB reagent was added to each well of a 96 well dish containing cells or without cells to determine background. Mixtures were incubated at 37° C. for 6 hours and the absorbance measured at 570 nm using 600 nm as a reference wavelength. The value for the non-treated control was set to 100% and all other values are represented as a percentage of the control.
Because cell density in cultures processed for in situ DNA hybridization could not be measured by MTS or AB assays, cell density was approximated in cell cultures processed by quantifying hematoxylin staining intensity. Coverslips containing cells were prepared for in situ DNA hybridization and co-stained with hematoxylin. Subsequently, each coverslip was scanned and the hematoxylin intensities quantified using ImageJ. To determine the total cell number per coverslip, images were acquired at 10 random positions at 100× magnification. Cells were counted throughout each image and the average cell number per slide was generated by averaging counts from the 10 images for each experimental group. Exactly 900 images at 100× magnification cover the surface of an 18 mm×18 mm coverslip.

PK comparison, rabbit = conditions: in vivo, 2 mg/kg, calculated from doses of 5 and 10 mg/kg, analyte = label, after CMX001
Text: as §1

Mad-4 JCV = assay: JCV (Mad-4) initial infection of SVG cells (in situ DNA hybridization, qPCR)
BK Virus = assay: In vitro potency against BK Virus in WI-38 cells; type: cell-based; conditions: Betapolyomavirus hominis, WI-38
HHV-6 = assay: In vitro potency against dsDNA viruses: HHV-6; type: cell-based; conditions: HSB2; HSB-2
HSV-1 [4] = assay: In vitro potency against dsDNA viruses: HSV-1; type: cell-based; conditions: Human alphaherpesvirus 1, MRC5; MRC-5
HPV 18 = assay: In vitro potency against dsDNA viruses: HPV 18; type: cell-based; conditions: HeLa
HCMV (AD169) = assay: HCMV real time array of viral transcripts; type: cell-based; conditions: CDV 50 μM, GCV 15 μM, CMX001 0.5 μM; ANOVA P<0.05
Adenovirus = assay: In vitro activity against Adenovirus (HFF; AdV 5); type: cell-based; conditions: unidentified adenovirus
Variola major = assay: organism not typed; type: cell-based; conditions: Vero 76

Molecule `Nc1ccn(C[C@@H](CO)OCP(=O)(O)O)c(=O)n1` [Cidofovir, cidofovir, reference compound] has an EC50 (HCMV(AD169)) of 0.38 µM, an AUC ([1]; 0.05 mg/kg, CMX001 0.050 mg/kg) of 33.3 ng·h/mL and a Cmax ([1]; 0.05 mg/kg, CMX001 0.050 mg/kg) of 1.51 ng/mL. It also gave an AUC ([1]; 0.1 mg/kg, CMX001 0.100 mg/kg) of 125 ng·h/mL, a Cmax ([1]; 0.1 mg/kg, CMX001 0.100 mg/kg) of 3.44 ng/mL and an AUC ([1]; 0.2 mg/kg, CMX001 0.200 mg/kg) of 190 ng·h/mL. It also gave a Cmax ([1]; 0.2 mg/kg, CMX001 0.200 mg/kg) of 5.41 ng/mL, an AUC ([1]; 0.4 mg/kg, CMX001 0.400 mg/kg) of 445 ng·h/mL and a Cmax ([1]; 0.4 mg/kg, CMX001 0.400 mg/kg) of 10.4 ng/mL. The AUC ([1]; 0.6 mg/kg, CMX001 0.600 mg/kg) was 519 ng·h/mL, the Cmax ([1]; 0.6 mg/kg, CMX001 0.600 mg/kg) was 12.2 ng/mL and the EC50 (HSV-1 [2]; Human alphaherpesvirus 1, strain E-377) was 5.5 ± 6 µM. The EC50 (HSV-1 [2]; Human alphaherpesvirus 1, strain F) was 1.5 ± 0.4 µM, the EC50 (HSV-1 [2]; Human alphaherpesvirus 1, strain HL-3) was 3.6 ± 3 µM and the EC50 (Vaccinia Virus) was 46 µM. For the same molecule, the Cmax (PK comparison, mouse) was “BQL-”, the EC50 (JC) was 0.38 µM and the EC50 (HPV 11) was 716 µM. For the same molecule, the “IC-90 of CDV, BKV replication” value (BKV(Dunlop)) was 40 µg/mL, the IC90 (BKV(Dunlop); read-out: IC-90 of CDV, BKV replication) was 127 µM and the EC50 (HSV-2; Human alphaherpesvirus 2, strain G) was 5.5 ± 2.1 µM. For the same molecule, the EC50 (HSV-2; Human alphaherpesvirus 2, strain MS) was 5.1 ± 5.4 µM, the EC50 (HSV-2; Human alphaherpesvirus 2, strain SR) was 5.9 ± 5.9 µM and the “plasma concentrations of cidofovir” value (CMV) was “below 250 ng/mL”. For the same molecule, the “peak plasma concentrations of cidofovir” value [3] was 19,600 ng/mL, the EC50 (EBV) was greater than 170 µM and the “cytotoxicity (total cell number)” value (SVG cells; CDV 0.01 to 0.1 μM) was “did not cause cytotoxicity at any concentration tested”. The “cell density and viability” value (SVG cells; CDV 0.1 to 1 μM, 4 days) was “did not elicit any visible changes”, the AUC (PK comparison, rabbit) was 50.1 ng·h/mL and the Cmax (PK comparison, rabbit) was 5.44 ng/mL. The “reduction in JCV DNA containing cells” value (Mad-4 JCV; CDV 0.01 to 0.1 μM, listed as CDV) was “did not elicit any significant reduction; also recorded: did not show any effect on JCV replication”, the “copy number of JCV genomes (qPCR)” value (Mad-4 JCV; CDV, any concentration tested) was “had no affect” and the EC50 (BK Virus) was 115 µM. It also gave an EC50 (HHV-6) of 0.2 µM, an EC50 (HSV-1 [4]) of 15 µM and an EC50 (HPV 18) of 516 µM. For the same molecule, the “levels of viral transcripts” value (HCMV (AD169)) was “Significant reductions in levels of most viral transcripts”, the IC50 (Adenovirus) was 1.3 µM and the EC50 (Adenovirus; HFF) was 1.3 µM. The EC50 (Variola major) was 27.3 µM.
